From patent publication US9364453B2, “Method of treating postural reflex abnormality caused by parkinson's disease” (Lundbeck NA Ltd., priority 2011, dated 2016)

Columns and labels:
[1] = as compared to L-DOPA; cited from earlier work
[2] = system: PA disease patient with pure akinesia and chief complaint of freezing of gait, not responsive to L-DOPA preparation; experiment: Example 3: treatment of a PA disease patient with pure akinesia and freezing of gait, not responsive to L-DOPA preparation; assay type: in vivo, human; conditions: person, DOPS 600 mg/day in 3 portions
Description: A combined use of DOPS and a COMT inhibitor was effective for the “freezing of gait symptom” for which L-DOPA preparation is not effective.

[3] = system: PA disease patient with pure akinesia and chief complaint of freezing of gait; experiment: Example 2: treatment of a PA disease patient with pure akinesia and chief complaint of freezing of gait; assay type: in vivo, human; conditions: person; DOPS 300 mg/day in 3 portions
Experimental: Treatment effect of therapeutic agent of the present invention for PA disease patient with pure akinesia and chief complaint of freezing of gait A PA disease patient with pure akinesia and chief complaint of freezing of gait: person. a) DOPS (300 mg/day) was administered in 3 portions, but ineffective. b) DOPS (300 mg/day) and Comtan® (300 mg/day) as a COMT inhibitor were simultaneously administered in 3 portions each. […] Combined use of DOPS and Comtan® (COMT inhibitor) was effective even in a treatment without using an L-DOPA preparation and a dopamine receptor stimulator.

[4] = target: T1, aromatic amino acid decarboxylase (AADC) (Homo sapiens, UniProt P20711); conditions: as compared to L-DOPA; cited from earlier work
T1 sequence (P20711 1-480): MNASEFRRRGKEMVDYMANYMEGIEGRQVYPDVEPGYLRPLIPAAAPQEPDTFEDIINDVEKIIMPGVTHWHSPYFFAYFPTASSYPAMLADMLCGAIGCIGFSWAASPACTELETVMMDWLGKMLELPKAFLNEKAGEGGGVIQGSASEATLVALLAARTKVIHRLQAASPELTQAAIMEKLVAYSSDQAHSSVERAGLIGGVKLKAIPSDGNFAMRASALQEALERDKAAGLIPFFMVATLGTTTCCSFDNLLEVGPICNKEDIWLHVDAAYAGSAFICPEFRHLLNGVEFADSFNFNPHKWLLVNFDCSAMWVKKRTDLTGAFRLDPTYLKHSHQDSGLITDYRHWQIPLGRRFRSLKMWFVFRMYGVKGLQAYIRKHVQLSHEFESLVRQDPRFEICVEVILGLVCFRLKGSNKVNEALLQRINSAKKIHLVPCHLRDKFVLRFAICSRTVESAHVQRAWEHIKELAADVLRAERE

patients with PA disease = conditions: cited from earlier work

N[C@H](C(=O)O)[C@H](O)c1ccc(O)c(O)c1 [DOPS, L-threo-3,4-dihydroxy-phenylserine]
transferability into the brain [1]: low | effect on freezing of gait [2]: slight improvement effect | effect on freezing of gait [3]: ineffective | decarboxylation reaction rate [4]: low | clinical trial results versus placebo (patients with PA disease; double-blind comparison, DOPS in optically active form): significantly superior to that of placebo | efficacy rate (patients with PA disease; in vivo): not necessarily high
